From US20110245284A1, “Alkoxy- and Alkylthio-Substituted Anilinopyrimidines” (Bayer CropScience AG, priority 2008, published 2011)

Key:
[1] = logP by HPLC on reversed-phase columns (C 18), method [a], acidic range pH 2.3; type: physicochemical
Experimental: (§1) The logP values were determined in accordance with EEC Directive 79/831 Annex V.A8 by HPLC (High Performance Liquid Chromatography) on reversed-phase columns (C 18), using the methods below:
[a] The determination is carried out in the acidic range at pH 2.3 using the mobile phases 0.1% aqueous phosphoric acid and acetonitrile, linear gradient from 10% acetonitrile to 95% acetonitrile.

[2] = logP by LC-MS on reversed-phase columns (C 18), method [b], acidic range pH 2.7; type: physicochemical; settings: pH 2.7, log p
Experimental: as §1
[b] The LC-MS determination in the acidic range is carried out at pH 2.7 using the mobile phases 0.1% aqueous formic acid and acetonitrile (contains 0.1% formic acid), linear gradient from 10% acetonitrile to 95% acetonitrile.

[3] = logP by LC-MS on reversed-phase columns (C 18), method [c], neutral range pH 7.8; type: physicochemical; settings: pH 7.8
Experimental: as §1
[c] The LC-MS determination in the neutral range is carried out at pH 7.8 using the mobile phases 0.001 molar aqueous ammonium bicarbonate solution and acetonitrile, linear gradient from 10% acetonitrile to 95% acetonitrile.

[4] = system: Sphaerotheca fuliginea; test: Sphaerotheca test (cucumber) / protective; type: in vivo; settings: Podosphaera fuliginea, 168 h, active compound concentration 500 ppm, evaluation 7 days after inoculation, read-out: efficacy
Experimental: The plants are subsequently placed in a greenhouse at 70% relative atmospheric humidity and a temperature of 23° C.

[5] = system: Leptosphaeria nodorum; test: Leptosphaeria nodorum test (wheat) / protective; type: in vivo; settings: Parastagonospora nodorum, active compound concentration 500 ppm, evaluation 7-9 days after inoculation, read-out: efficacy
Experimental: Thereafter, the plants are placed in a greenhouse at 90% relative atmospheric humidity and a temperature of 22° C.

Structure (SMILES)	chromatographic logP ([1]; pH 2.3, logP (pH2.3))	further results
CC(O)c1cccc(Nc2ncc(Br)c(NC3CC3)n2)c1 (stereo not drawn) [Ic-IV-2, 1-(3 -{[5-Bromo-4-(cyclopropylamino)pyrimidin-2-yl]amino}phenyl)ethanol]	1.31	–
Clc1ncc(Br)c(NC2CCC2)n1 [Example V-2, 5-Bromo-2-chloro-N-cyclobutylpyrimidin-4-amine]	2.86	–
COCCCOC(C)c1cccc(Nc2ncc(Cl)c(NC3CC3)n2)c1 (stereo not drawn) [Example 256, 5-Chloro-N4-cyclopropyl-N2-{3-[1-(3-methoxypropoxy)ethyl]phenyl}pyrimidine-2,4-diamine]	2.2	chromatographic logP [2]: 2.2; chromatographic logP [3]: 3.62
COCc1cccc(Nc2ncc(Cl)c(NCC#N)n2)c1 [Example 51]	–	chromatographic logP ([1]; pH 2.3, log p): 1.68; chromatographic logP [3]: 2.09
CCC(SC)c1cccc(N)c1 (stereo not drawn) [IVc-I-1, 3-[1-(Methylsulphanyl)propyl]aniline]	1.49	–
COCC(O)c1cccc(N)c1 (stereo not drawn) [IVc-I-7, 1-(3-Aminophenyl)-2-methoxyethanol]	–	logP (pH2.3) ([1]; pH 2.3): 0.73
CCC(Cl)c1cccc([N+](=O)[O-])c1 (stereo not drawn) [VIIa-1, 1-(1-Chloropropyl)-3-nitrobenzene]	3.31	–
COCc1cccc(Nc2ncc(Cl)c(NCCCN3CCCCCC3=O)n2)c1 [Example 52]	–	log p ([1]; pH 2.3): 1.67[a]
COCC(O)c1cccc(N)c1 (stereo not drawn) [IVc-I-5, 1-(3-Aminophenyl)-2-methoxyethanol]	0.51	–
CCCC[S+]([O-])c1cccc(Nc2ncc(C(F)(F)F)c(NC3CCC3)n2)c1 (stereo not drawn) [Example 203]	–	pest or weed control at 500 ppm [4]: ≥ 70%; pest or weed control at 500 ppm [5]: ≥ 70%; chromatographic logP [2]: 3.4; chromatographic logP [3]: 3.67
CCC(C)S(=O)(=O)C(C)c1cccc(Nc2ncc(C(F)(F)F)c(NC3CC3)n2)c1 (stereo not drawn) [Example 187]	–	pest or weed control at 500 ppm [4]: ≥ 70%; pest or weed control at 500 ppm [5]: ≥ 70%; chromatographic logP [2]: 3.14; chromatographic logP [3]: 3.34
CCSC(CC)c1cccc(N)c1 (stereo not drawn) [IVc-I-3, 3-[1-(Ethylsulphanyl)propyl]aniline]	1.94	–
COCC(O)c1cccc([N+](=O)[O-])c1 (stereo not drawn) [2-methoxy-1-(3-nitrophenyl)ethanol, 2-Methoxy-1-(3-nitrophenyl)ethanol]	1.35	–
CCSC(C)c1cccc([N+](=O)[O-])c1 (stereo not drawn) [VIc-I-4, 1-[1-(Ethylsulphanyl)ethyl]-3-nitrobenzene]	3.48	–

The next lines start with results.

chromatographic logP ([1]; pH 2.3, logP (pH2.3))	Structure (SMILES)	further results
3.09	COC(C)c1cccc(Nc2ncc(Br)c(Cl)n2)c1 (stereo not drawn) [Xa-13, 5-Bromo-4-chloro-N-[3-(1-methoxyethyl)phenyl]pyrimidin-2-amine]	–
3.89	COC(C)c1cccc(Nc2ncc(C(F)(F)F)c(Cl)n2)c1 (stereo not drawn) [Xa-9, 4-Chloro-N-[3-(1-methoxyethyl)phenyl]-5-(trifluoromethyl)pyrimidin-2-amine]	–
4.9	CCSC(C)c1cccc(Nc2ncc(C(F)(F)F)c(Cl)n2)c1 (stereo not drawn) [Xa-12, 4-Chloro-N-{3-[1-(ethylsulphanyl)ethyl]phenyl}-5-(trifluoromethyl)pyrimidin-2-amine]	–
5.4	CC(C)CSc1cccc(Nc2ncc(C(F)(F)F)c(Cl)n2)c1 [Xa-7, 4-Chloro-N-{3-[(2-methylpropyl)sulphanyl]phenyl}-5-(trifluoromethyl)pyrimidin-2-amine]	–
4.11	CSc1cccc(Nc2ncc(C(F)(F)F)c(Cl)n2)c1 [Xa-11, 4-Chloro-N-[3-(methylsulphanyl)phenyl]-5-(trifluoromethyl)pyrimidin-2-amine]	–
2.01	CC(O)c1cccc(Nc2ncc(C(F)(F)F)c(NC3CC3)n2)c1 (stereo not drawn) [Ic-IV-3, 1-(3 -{[4-(Cyclopropylamino)-5-(trifluoromethyl)pyrimidin-2-yl]amino}phenyl)ethanol]	–
4.99	CCCSc1cccc(Nc2ncc(C(F)(F)F)c(Cl)n2)c1 [Xa-1, 4-Chloro-N-[3-(propylsulphanyl)phenyl]-5-(trifluoromethyl)pyrimidin-2-amine]	–
4.93	CC(C)Sc1cccc(Nc2ncc(C(F)(F)F)c(Cl)n2)c1 [Xa-2, 4-Chloro-N-[3-(propan-2-ylsulphanyl)phenyl]-5-(trifluoromethyl)pyrimidin-2-amine]	–
1.98	CC(O)c1cccc(Nc2ncc(Cl)c(Cl)n2)c1 (stereo not drawn) [Xa-14, 1-{3-[(4,5-Dichloropyrimidin-2-yl)amino]phenyl}ethanol]	–
4.1	CCCSc1cccc(Nc2ncc(Cl)c(Cl)n2)c1 [Xa-5, 4,5-Dichloro-N-[3-(propylsulphanyl)phenyl]pyrimidin-2-amine]	–
